Test results published in the CheMixHub viscosity set.
± gives the uncertainty stated by the source.

Test: xn = mol fraction of the nth substance listed

CCCCCCCO + CCCO
viscosity [mPa·s], 101 kPa
Settings | 298.15 K | 308.15 K | 318.15 K
x2 = 0.05 | 5.555 ± 0.054 | 4.09 ± 0.038 | 3.044 ± 0.028
x2 = 0.1 | 5.333 ± 0.051 | 3.923 ± 0.037 | 2.935 ± 0.027
x2 = 0.15 | 5.11 ± 0.049 | 3.762 ± 0.035 | 2.83 ± 0.026
x2 = 0.2 | 4.888 ± 0.047 | 3.607 ± 0.034 | 2.728 ± 0.025
x2 = 0.25 | 4.667 ± 0.044 | 3.456 ± 0.032 | 2.627 ± 0.024
x2 = 0.3 | 4.449 ± 0.042 | 3.309 ± 0.031 | 2.528 ± 0.023
x2 = 0.35 | 4.235 ± 0.04 | 3.166 ± 0.029 | 2.429 ± 0.022
x2 = 0.4 | 4.026 ± 0.037 | 3.027 ± 0.028 | 2.331 ± 0.021
x2 = 0.45 | 3.822 ± 0.035 | 2.89 ± 0.026 | 2.234 ± 0.02
x2 = 0.5 | 3.623 ± 0.033 | 2.756 ± 0.025 | 2.136 ± 0.019
x2 = 0.55 | 3.431 ± 0.032 | 2.624 ± 0.024 | 2.039 ± 0.018
x2 = 0.6 | 3.243 ± 0.03 | 2.494 ± 0.022 | 1.942 ± 0.017
x2 = 0.65 | 3.061 ± 0.028 | 2.364 ± 0.021 | 1.845 ± 0.017
x2 = 0.7 | 2.882 ± 0.026 | 2.236 ± 0.02 | 1.748 ± 0.016
x2 = 0.75 | 2.707 ± 0.025 | 2.107 ± 0.019 | 1.654 ± 0.015
x2 = 0.8 | 2.534 ± 0.023 | 1.979 ± 0.018 | 1.56 ± 0.014
x2 = 0.85 | 2.362 ± 0.021 | 1.849 ± 0.017 | 1.47 ± 0.013
x2 = 0.9 | 2.189 ± 0.02 | 1.719 ± 0.015 | 1.382 ± 0.012
x2 = 0.95 | 2.013 ± 0.018 | 1.587 ± 0.014 | 1.299 ± 0.011

CCCCCCCO + c1ccccc1
viscosity [mPa·s], 100 kPa
Settings | x2 = 0.0864 | x2 = 0.1561 | x2 = 0.2397 | x2 = 0.3469 | x2 = 0.4396 | x2 = 0.5661 | x2 = 0.6446 | x2 = 0.7517 | x2 = 0.8493 | x2 = 0.9561
293.15 K | 5.514 ± 0.28 | 4.58 ± 0.23 | 3.709 ± 0.19 | 2.802 ± 0.14 | 2.132 ± 0.11 | 1.412 ± 0.072 | 1.117 ± 0.057 | 0.875 ± 0.044 | 0.766 ± 0.039 | 0.681 ± 0.035
303.15 K | 3.992 ± 0.2 | 3.302 ± 0.17 | 2.668 ± 0.14 | 2.018 ± 0.1 | 1.568 ± 0.08 | 1.053 ± 0.054 | 0.859 ± 0.044 | 0.703 ± 0.036 | 0.625 ± 0.032 | 0.573 ± 0.029
313.15 K | 2.947 ± 0.15 | 2.439 ± 0.12 | 1.973 ± 0.1 | 1.501 ± 0.076 | 1.172 ± 0.059 | 0.822 ± 0.042 | 0.679 ± 0.035 | 0.573 ± 0.029 | 0.525 ± 0.027 | 0.498 ± 0.026
323.15 K | 2.279 ± 0.12 | 1.918 ± 0.097 | 1.573 ± 0.08 | 1.203 ± 0.061 | 0.942 ± 0.048 | 0.665 ± 0.034 | 0.556 ± 0.028 | 0.479 ± 0.025 | 0.442 ± 0.023 | 0.437 ± 0.022

CCOC(=O)C(C)O (centres undefined) + C1CCOC1
101 kPa
Settings | viscosity [mPa·s]
308.15 K, x1 = 0.6999 | 1.255 ± 0.024
313.15 K, x1 = 0.4001 | 0.7575 ± 0.014
